# Where two headings read alike, the source gives them in different places.
# Key:
# animal = conditions: in vivo; cited from earlier work
# sodium channel = assay: Temperature-dependent circular dichroism at 222 nM (helix-coil transition); assay type: biochemical, beef (bovine brain); conditions: 222 nm wavelength; for % Loss of Helix (35° to 40° C.) / % Loss of Helix (30° to 35° C.): fresh AChE; for % Loss of Helix (35° to 40° C.): control 4.7 (pilocarpine), 4.6 (lidocaine); for % Loss of Helix (30° to 35° C.): control 21.8 (pilocarpine), 12.1 (lidocaine); for effect on alpha helix from 35° C. to 40° C. / effect on helical transition normally observed between 30°-35° C.: beef brain nerve cell protein preparation; for effect on helical transition normally observed between 30°-35° C.: 15° C. to 60° C.
# Source text: As disclosed in PCT/US93/05792, published Jan. 6, 1994, one can identify compounds with potential analgesic effect by using circular dichroism to bioassay the interaction of molecules with ion channels, including sodium channels. Likewise, this bioassay technique is applicable to the thiophene compounds of the present invention.
# To perform this method, solubilized nerve cell membrane proteins and acetylcholinesterase are purified using ion exchange and size exclusion chromatography. Then, one forms a mixture of a nerve cell protein and a compound capable of blocking or preventing the normal function of preferably the sodium channel in an excitable cell, and subjects that mixture to circular dichroism at a wave length of […] wave length. The transition of molar ellipticity is measured while varying the temperature of the mixture between 25°-50° C. The transition of molar ellipticity of the mixture is compared with the transition of molar ellipticity of a control nerve cell protein without the compound capable of blocking or preventing the normal function of the sodium channel in an excitable cell. The alpha helix content, as measured at […], is used to monitor the effect of temperature change on the ion channel's conformational change.
# However, when a sodium channel active molecule is added to the membrane preparation, the temperature-dependent helix transition observed using circular dichroism is altered. […] These compounds, therefore, seem to stabilize the helix conformation of the sodium channel and to prevent the temperature-dependent uncoiling of alpha helix between 30° C.-35° C.
# [1] = cardiac patients, routine therapeutic administration of lidocaine; cited from earlier work
# rats = conditions: cited from earlier work
# mice = conditions: cited from earlier work
# [2] = system: Salmonella strains TA98, TA100, TA1535 and TA97; conditions: cited from earlier work
# Fischer rats = conditions: cited from earlier work
# B6C3FI mice = conditions: cited from earlier work
# [3] = surviving female mice, relative to controls
structure (smiles),measurement,setting,value
"Cc1cccc(C)c1N [2,6-xylidine]",carcinogenicity,animal,established animal and probable human carcinogen
CCN(CC)CC(=O)Nc1c(C)cccc1C [Lidocaine],% Loss of Helix (35° to 40° C.),sodium channel,13.6%
same,% Loss of Helix (30° to 35° C.),sodium channel,1.8%
same,effect on alpha helix from 35° C. to 40° C.,sodium channel,the alpha helix uncoils to equal the helix in the control sample
same,effect on helical transition normally observed between 30°-35° C.,sodium channel,prevented the helical transition normally observed between 30°-35 °C
same,"2,6-xylidine in human serum hemoglobin adduct",[1],"high levels of 2,6-xylidine"
CC[C@@H]1C(=O)OC[C@@H]1Cc1cncn1C [Pilocarpine],% Loss of Helix (35° to 40° C.),sodium channel,17.5%
same,% Loss of Helix (30° to 35° C.),sodium channel,7.1%
same,effect on alpha helix from 35° C. to 40° C.,sodium channel,the alpha helix uncoils to equal the helix in the control sample
same,effect on helical transition normally observed between 30°-35° C.,sodium channel,prevented the helical transition normally observed between 30°-35 °C
Cc1ccccc1N.Cl [ortho-toluidine hydrochloride],carcinogenicity,rats,carcinogenic in rats and mice
same,carcinogenicity,mice,carcinogenic in rats and mice
c1ccsc1 [thiophene],mutagenicity,[2],does not function as a mutagen in this assay
same,absolute lung weight and lung to brain weight ratio,Fischer rats; all dose groups of both sexes surviving until study termination,decrease in the absolute lung weight and in the lung to brain weight ratio
same,mortality,"Fischer rats; male rats, 2000 and 4000 ppm, first week",mortality also occurred in the 2000 and 4000 ppm male exposure groups
same,group mean body weight,"Fischer rats; rats of both sexes, relative to control",dose-related depression in group mean body weight relative to control
same,clinical signs of toxicity,"Fischer rats; rats, 4000 ppm","rough haircoat, ocular discharge, nasal discharge, dyspnea, and staggering gait"
same,"microscopic examination, lung","Fischer rats; rats, 4000 ppm",chronic active inflammation of the lung
same,mortality,"Fischer rats; rats, 8000 ppm, one exposure",All rats exposed to 8000 ppm died following one exposure
same,"microscopic examination, liver","Fischer rats; rats, all exposure groups, severity increasing with dose",necrotizing inflammation of the liver in all exposure groups with severity increasing with dose
same,toxicity to liver and lung,"Fischer rats; summary of rat and mice studies, extremely high inhalation doses",shows toxicity to liver and lung
same,survival,"B6C3FI mice; female mice, 1000 ppm and 500 ppm",survived the study
same,female mice died as a result of exposures,"B6C3FI mice; female mice, 2000 ppm",2/10
same,mortality,"B6C3FI mice; female mice, 8000 ppm and 4000 ppm",Total mortality
same,survival / mortality,"B6C3FI mice; male mice, all exposure levels, single exposure",died or were terminated in moribund condition following a single exposure
same,"microscopic pathology, hepatocytes",B6C3FI mice; mice that died early (within several hours after first exposure),centrilobular degeneration of hepatocytes
same,"microscopic pathology, cause of mortality",B6C3FI mice; mice,mortality was attributed to liver toxicity
same,other exposure-related microscopic lesions,B6C3FI mice; mice,No other exposure-related microscopic lesions were found
same,"microscopic pathology, nose and nasal cavity","B6C3FI mice; mice, more severe in mice that survived the study",Necrotizing inflammation of the nose and nasal cavity
same,liver absolute and relative organ weights (liver-to-body and liver-to-brain weight ratios),B6C3FI mice; [3],increased relative to the controls
same,thymus organ weight parameters,B6C3FI mice; [3],reduced
same,mean body weights or mean lung weights,B6C3FI mice; surviving female mice,did not affect mean body weights or mean lung weights
same,signs of toxicity,"B6C3FI mice; surviving mice, 500 ppm and 1000 ppm",hypoactivity and abnormal posture
same,signs of toxicity,"B6C3FI mice; surviving mice, 2000 ppm",dyspnea
same,"microscopic pathology, hepatocytes","B6C3FI mice; surviving mice, all exposure levels",centrilobular necrosis of hepatocytes

# From patent publication US5776859A, “Sodium channel active novel compounds and related processes and bioassay techniques” (priority 1995, dated 1998)
